# Like-named read-outs stand apart in the source and are kept apart here.
# Assays:
# PP2A = PP2A phosphatase activity; format: biochemical
# Description: (§1) The mechanism of action of KB-208 and KB-151 was investigated further to evaluate the effects on signal transduction. Many kinases were studied including Akt1/2/3 (T308), Akt1/2/3 (S473), CREB, EGF R1 eNOS, ERK1/2, Chk-2, c-Jun, Fgr, GSK-3a/p, GSK-3p, HSP27, p53 (S15), p53 (S46), p53 (S392), JNK 1/2/3, Lck, Lyn, MSK1/2, p70 S6 kinase (T389), p70 S6 kinase (T421/S424), PRAS40, p38a, PDGF RP, PLC-γ1, Src, PYK2, RSK1/2, RSK1/2/3, STAT2, STAT5a/b, WNK1, Yes, STAT1, STAT3 (Y705), STAT3 (S727), β-catenin, STAT6, and HSP60. […] It was then confirmed that KB-208 and KB-151 activate PP2A (in other words they increase its phosphatase activity) (FIG. 14). PP2A is a serine phosphatase that dephosphorylates HSP27. Deregulation of HSP27 also occurs in diseases other than immune cytopenias for example prostate cancer, colorectal cancer, and breast cancer.
# HSP27 = assay: signal transduction study, phosphorylated HSP27 level; format: cell-based; conditions: no RBC, un-opsonized RBC
# Description: as §1
# [1] = system: FcγRI (CD64), FcγRII (CD32), and FcγRIII (CD16); assay: FcγR expression on monocytes with monoclonal antibodies; format: cell-based; conditions: monocytes untreated or treated
# Protocol: Due to observing similar results as IVIG, the binding of KB-208 and KB-151 to FcγR was evaluated to determine the attachment between KB-208 or KB-151 and FcγR. Three monoclonal antibodies each specific for FcγRI (CD64), FcγRII (CD32), and FcγRIII (CD16) were used to test the resulting expression of FcγRI, FcγRII and FcγRIII.
# [2] = system: attachment of antibody-opsonized RBCs to FcγRs on monocytes; assay: room temperature RBC rosette assay (binding of anti-D opsonized RBCs to monocytes); format: cell-based; conditions: 100 μM
# Description: Fluorescent dye-labelled RBCs opsonized with anti-D were used to study the mechanism of phagocytosis inhibition using a room temperature assay to look for RBC rosettes (attachment of antibody-opsonized RBCs' to FcγRs) in the presence of monocytes. IVIg was used as the positive control and no treatment as the negative control. In the negative control, monocytes bound to the RBC and initiated phagocytosis (FIGS. 11A and 11E).
# [3] = 60-day toxicity in Balb/c mice (blood biochemistry, histopathology); format: in vivo; conditions: after 60 days of treatment
# Protocol: (§2) The efficacy of KB-151 and KB-208 at diminishing the platelet level was assessed in three ITP mice models: C57BL/6 (FIG. 7), Balb/c (FIGS. 8A-8B), and CD1 (FIG. 9). […] The toxicity was also assessed using the Balb/c model.
# ITP mice model = assay: anti-CD41 antibody ITP mouse model (platelet count); format: in vivo; conditions: Balb/c, day 4 after two treatment doses on days 2 and 3, 100 μM s.c. twice a day, vs CD-41 group (*P≤0.05)
# Protocol: An in vivo phagocytosis inhibition assay was performed with KB-151 in a mouse model, Balb/c animals (FIG. 6A and FIG. 6B). A dose of 100 μM of KB-151 was injected to 20.5 g mice at 500 μL based on the following calculations:
# A dose-escalation anti-CD41 antibody ITP mouse model was used.
# as §2
# PBMC, HEPG2, and HEK-293 [4] = assay: LDH assay at higher concentrations (up to 250 μM); format: cell-based; conditions: PBMCs, HEPG2, HEK293
# Protocol: (§3) Cell lines (HepG2, liver-derived, HB-8065™; HEK293, kidney-derived cell line, CRL-1573™) were purchased from the ATCC. Both cell lines were cultured in Eagle's Minimum Essential Medium supplemented with 10% fetal calf serum.
# (§4) To further determine the potential for toxicity of compounds KB-151 and KB-208, additional toxicity studies were done using higher concentrations, up to 250 μM of each compound, using LDH and MTT (FIGS. 4A-4D), and an apoptosis assay (Annexin V/PI) (FIGS. 5A-5C).
# PBMC, HEPG2, and HEK-293 [5] = assay: MTT assay at higher concentrations (up to 250 μM); format: cell-based, human; conditions: PBMCs, HEPG2, HEK293
# Protocol: as §3, §4
# [6] = system: phagocytosis of anti-D-opsonized Rh(D+) red cells by monocytes; assay: monocyte monolayer assay (MMA), in vitro phagocytosis assay; format: cell-based, human; parameters: key to Phagocytic index (PI): number of phagocytosed RBCs per 100 monocytes; conditions: for Phagocytic index (PI): PI = (# of phagocytic red blood cells)/(300 monocytes) * 100; for IC50 / EC50: dose-inhibitory response; for IC50: 0.5-100 μM, read-out: IC50 for inhibition of phagocytosis; for effect on IVIg dose-response curve (cooperation/synergy with IVIg): compound added at its IC50 concentration to each IVIg concentration
# Protocol: The MMA to screen compounds for their ability to inhibit phagocytosis was performed as previously described (Purohit, M. K. et al., Bioorg. Med. Chem. Lett. 2013; 23:2324-7; and Purohit, M. K. et al., Bioorg. Med. Chem. 2014; 22:2739-52.). Briefly, Mononuclear cells (PBMCs) were layered onto chamber slides and monocytes purified by adherence after 1 hr at 37° C. with 5% CO2. Drugs were solubilized in 100% DMSO and then diluted in Roswell Park Memorial Institute (RPMI) to the final concentration of 5 μM, as previously reported (8,9). Corresponding dimethyl sulfoxide (DMSO) volumes in RPMI medium were used as a control. After one hour, indicator Rh-positive red cells opsonized with anti-RhD were added to the chamber slides and then further incubated for 2 hours before fixing and counting phagocytosed red blood cells (RBCs) using phase-contrast microscopy. As a positive control for inhibition, Intravenous immunoglobulin (IVIg) was used, known to inhibit phagocytosis due to blocking of FcγRs. The phagocytosis index (PI) was determined as the number of phagocytosed RBCs in 100 monocytes. The percent inhibition of phagocytosis was determined by comparing the PI in each treated sample to the PI in the untreated sample, which was determined by normalizing the PI concentration in each treated sample (phagocytosis of opsonized RBCs with vehicle only, representing 100 percent phagocytosis.
# Concentrations included 100 μM, 50 μM, 25 μM, 10 μM, 5 μM, 2.5 μM, 1 μM, and 0.5 μM.
# The 80 selected pyrazole core compounds were screened using a concentration of 5 μM in the in vitro phagocytosis assay, referred to as the monocyte monolayer assay (MMA). Compounds were compared to a standard intravenous immunoglobulin (IVIg) at a concentration of 1 mg/mL.
# PBMC, HEPG2, and HEK-293 [7] = assay: apoptosis assay (Annexin V/PI); format: cell-based, human; conditions: 250 μM, 1 hour; PBMCs, HEPG2, HEK293
# Protocol: PBMC, HEPG2, and HEK-293 cells were treated for 1 hour with the compound KB-151 or the compound KB-208 at a 250 μM concentration. 100 μM thimerosal was used as a positive control for viability (diluted in RPMI). Staining with Annexin V and PI was performed according to the manufacturer's procedure for the Annexin-V-FLUOS Staining Kit (Sigma) and samples were run through an SP6800 Spectral Cytometer.
# as §4
# [8] = Homo sapiens, Monocyte, 5 μM compound, screening of the 80 compounds, read-out: Average inhibition (% ± standard deviation)
# [9] = Homo sapiens, Monocyte, 5 μM, anti-D-opsonized Rh(D+) red cells, read-out: Inhibition percentage
structure (smiles),measurement,setting,value
CCOC(=O)c1nn(-c2ccccc2)c(C#N)c1NC(=O)c1nn(CC)cc1Br [KB-151],PP2A phosphatase activity,PP2A,activate PP2A
same,effect on HSP27 phosphorylation,HSP27,dephosphorylate HSP27
same,"binding to Fcγ receptors (FcγRI, FcγRII, FcγRIII expression on monocytes)",[1],independent of binding the three tested Fcγ receptors
same,binding of monocytes to anti-D opsonized RBCs and phagocytosis,[2],inhibit the binding and inhibit phagocytosis similarly to IVIg
same,"histopathology of liver, heart, spleen, lymph nodes, and kidney",[3],showed abnormalities nor any toxicity
same,toxicity (blood biochemistry),[3],Minimal toxicity
same,platelet (PLT) count,ITP mice model,significant increase
same,toxicity by LDH,"PBMC, HEPG2, and HEK-293 [4]",low to no toxicity
same,toxicity by MTT,"PBMC, HEPG2, and HEK-293 [5]",low to no toxicity
same,Phagocytic index (PI),[6]; 5 μM,17
same,IC50,"[6]; Homo sapiens, Monocyte",2.71 ± 0.786 µM
same,inhibition at 5 µM,[6]; [8],80 ± 3.68%
same,inhibition at 5 µM,[6]; [9],80%
same,EC50,"[6]; Homo sapiens, Monocyte, unit inferred",8 ± 4 µM
same,effect on IVIg dose-response curve (cooperation/synergy with IVIg),[6],no effect
same,IC50,[6],3 µM
same,toxicity by apoptosis assay (Annexin V/PI),"PBMC, HEPG2, and HEK-293 [7]",low to no toxicity
COC(=O)CC1CCN(C(=O)c2cc(-c3cccs3)nn2-c2ccccc2)CC1 [KB-208],PP2A phosphatase activity,PP2A,activate PP2A
same,effect on HSP27 phosphorylation,HSP27,dephosphorylate HSP27
same,"binding to Fcγ receptors (FcγRI, FcγRII, FcγRIII expression on monocytes)",[1],independent of binding the three tested Fcγ receptors
same,binding of monocytes to anti-D opsonized RBCs and phagocytosis,[2],inhibit the binding and inhibit phagocytosis similarly to IVIg
same,toxicity by LDH,"PBMC, HEPG2, and HEK-293 [4]",low to no toxicity
same,toxicity by MTT,"PBMC, HEPG2, and HEK-293 [5]",low to no toxicity
same,Phagocytic index (PI),[6]; 5 μM,7
same,IC50,"[6]; Homo sapiens, Monocyte",4.21 ± 1.24 µM
same,inhibition at 5 µM,[6]; [8],81 ± 3.43%
same,inhibition at 5 µM,[6]; [9],81%
same,EC50,"[6]; Homo sapiens, Monocyte",5 ± 0.2 µM
same,effect on IVIg dose-response curve (cooperation/synergy with IVIg),[6],no effect
same,IC50,[6],4 µM
same,toxicity by apoptosis assay (Annexin V/PI),"PBMC, HEPG2, and HEK-293 [7]",low to no toxicity
Cc1c(NC(=O)C2CCN(S(=O)(=O)c3cccs3)CC2)c(=O)n(-c2ccccc2)n1C [KB-145],inhibition at 5 µM,[6]; [8],4 ± 0.06%
FC(F)(F)c1cc(-c2cccs2)nc(-n2nc(C(F)(F)F)c3c2CCC3)n1 [KB-211],inhibition at 5 µM,[6]; [8],33 ± 2.31%
O=C1NC(=O)C2C1C(c1ccc(O)cc1)NN2Cc1ccccc1 (centres unmarked) [KB-157],inhibition at 5 µM,[6]; [8],3 ± 9.96%
CCn1cc(S(=O)(=O)NCCc2ccc(OC)c(OC)c2)cn1 [KB-179],Phagocytic index (PI),[6]; 5 μM,14
same,inhibition at 5 µM,[6]; [8],53 ± 1.18%
same,inhibition at 5 µM,[6]; [9],53%
COCc1nnc(NC(=O)c2cnn(C)c2-n2cccc2)s1 [KB-207],inhibition at 5 µM,[6]; [8],14 ± 1.86%
